Results published in patent US12582617B2, “Methods for treating cancer” (RADIUS PHARMACEUTICALS, INC., priority 2015, dated 2026).
Structures can show the parent of a compound that is named as a salt.

Key:
[1] = RAD1901 levels in plasma, tumor and brain of mice implanted with MCF7 cells (LC-MS/MS); format: in vivo; conditions: for Brain: treated for 40 days
Text: A similar tumor to plasma ratio was also observed at lower dose levels where tumor concentrations were approximately 20-30 fold higher than in plasma.

[2] = tested on: PDx models with patient derived breast cancer tumor; experiment: Tumor growth inhibition (TGI) in patient-derived xenograft (PDx) models, FIG. 1; format: in vivo, athymic nude mice
ER = biological target: T1, ER (Homo sapiens, UniProt P03372); experiment: ER degradation and ER signaling in MCF-7 cell line in vitro; format: cell-based; conditions: MCF-7 cell lines; 0.001-1 μM
T1 construct: from tissue; host or cells: uterus (also pituitary, bone and muscle as non-target tissue) of living human subjects
T1 sequence (P03372 1-595): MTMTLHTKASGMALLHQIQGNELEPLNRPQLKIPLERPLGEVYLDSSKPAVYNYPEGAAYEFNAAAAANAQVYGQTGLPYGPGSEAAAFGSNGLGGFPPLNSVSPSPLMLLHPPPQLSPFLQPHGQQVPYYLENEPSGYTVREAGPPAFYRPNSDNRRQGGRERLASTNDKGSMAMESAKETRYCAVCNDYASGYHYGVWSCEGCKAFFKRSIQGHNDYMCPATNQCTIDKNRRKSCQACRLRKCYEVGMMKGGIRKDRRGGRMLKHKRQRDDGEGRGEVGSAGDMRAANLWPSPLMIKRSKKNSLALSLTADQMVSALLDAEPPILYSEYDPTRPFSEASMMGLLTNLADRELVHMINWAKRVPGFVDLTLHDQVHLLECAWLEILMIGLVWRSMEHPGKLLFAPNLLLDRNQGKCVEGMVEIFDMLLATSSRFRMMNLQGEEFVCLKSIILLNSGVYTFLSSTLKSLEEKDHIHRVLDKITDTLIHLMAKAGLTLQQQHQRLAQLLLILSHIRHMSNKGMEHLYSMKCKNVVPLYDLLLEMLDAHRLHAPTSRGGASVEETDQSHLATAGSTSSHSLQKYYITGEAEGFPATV
Procedure: MCF-7 cells (human mammary metastatic adenocarcinoma) were purchased from American Type Culture Collection (Rockville, MD) and were routinely maintained in phenol red-free minimal essential medium (MEM) containing 2 mM L-glutamine and Earle's BSS, 0.1 mM non-essential amino acids and 1 mM sodium pyruvate supplemented with 0.01 mg/ml bovine insulin and 10% fetal bovine serum (Invitrogen, Carlsbad, CA), at 5% CO2.
Cells were harvested and protein expression was analyzed using standard practice. Tumors were harvested at the indicated time points after the last day of dosing, homogenized in RIPA buffer with protease and phosphatase inhibitors using a Tissuelyser (Qiagen). Equal amounts of protein were separated by MW, transferred to nitrocellulose membranes and blotted with the following antibodies using standard practice: • Estrogen receptor (SantaCruz (HC-20); sc-543) • Progesterone receptor (Cell Signaling Technologies; 3153) • Vinculin (Sigma-Aldrich, v9131)
qPCR analyses were performed as follows: Cells were harvested, mRNA was extracted, and equal amounts used for cDNA synthesis and qPCR with primers specific for progesterone receptor, GREB1, and TFF1 (LifeTech). Bands were quantified using 1D Quant software (GE).
Three ER target genes, progesterone receptor (PgR), growth regulation by estrogen in breast cancer 1 (GREB1) and trefoil factor 1 (TFF1), were used as markers.

PR expression = PR expression in PDx-5 tumors; format: in vivo, athymic nude mice; conditions: RAD1901 60 and 120 mg/kg p.o., q.d.; fulvestrant 3 mg/dose
Text: Tumors were harvested at the indicated time points after the last day of dosing (unless otherwise specified), homogenized in RIPA buffer with protease and phosphatase inhibitors using a Tissuelyser (Qiagen). Equal amounts of protein were separated by MW, transferred to nitrocellulose membranes and blotted with the following antibody as described in the Materials and methods section: progesterone receptor (PR, Cell Signaling Technologies; 3153).
Bands were quantified using 1D Quant software (GE), and PR IHC Allred scores obtained from PDx-5 models as described in Example I(A)(iii)(1) are shown in FIG. 19.

[3] = end of study, 60 mg/kg dose level

## CCNCCc1ccc(CN(CC)c2cc(OC)ccc2[C@@H]2CCc3cc(O)ccc3C2)cc1 [RAD1901, (6R)-6-(2-(N-(4-(2-(ethylamino)ethyl)benzyl)-N-ethylamino)-4-methoxyphenyl)-5,6,7,8-tetrahydronaphthalen-2-ol dihydrochloride]
[1]; 0.3 mg/kg
  Brain: BLQ
[1]; 1 mg/kg
  Brain: BLQ
[1]; [3]
  concentration of RAD1901 in plasma: 344 ± 117 ng/mL
  concentration of RAD1901 in tumor: 11,118±3,801 ng/mL
[1]; mice treated for 40 days
  delivery to the brain (in words): able to cross the blood-brain barrier (BBB)
  tumor accumulation (in words): preferably accumulated in the tumor
[2]; PDx models, RAD1901 60 or 90 mg/kg p.o., q.d., 60 days, alone or with palbociclib
  tumor growth inhibition (in words): efficacious in inhibiting tumor growth
[2]; RAD1901 single agent treatment, PDx-2, PDx-5, PDx-7, PDx-8, PDx-9 and PDx-10
  TGI: ≤ 64%
[2]; RAD1901 single agent treatment, PDx-6 and PDx-11 models
  TGI: ≥ 65%
[2]; xenograft models wherein RAD1901 alone achieved a TGI of less than 25%
  TGI: less than 25%
ER
  ER expression and ER signaling (PGR, GREB1, TFF1) (in words): complete ER degradation and inhibited ER signaling
PR expression
  PR expression (in words): showed efficacy at dosages of both 60 mg/kg and 120 mg/kg
